In patent US12616750B2, “Combination therapy utilizing DNA alkylating agents and ATR inhibitors” (Merck Patent GmbH, priority 2018, dated 2026):
“And” between values parts separate entries of the source, which are not always exact repeats. Equal values may be shown once. Read-outs that look alike come from different tables or passages of the source. Where a SMILES comes first, the peptide text is derived from it. [ ]: non-standard residue; d: D form. The star is where a group is joined. Dolaproine = CO[C@@H]([C@@H]1CCCN1)[C@@H](C)C(=O)O; Dil = CC[C@H](C)[C@H](NC)[C@@H](CC(=O)O)OC; X1 = C[C@@H](N*)[C@@H](O)c1ccccc1; NMeV = CN[C@H](C(=O)O)C(C)C

Legend:
HCC-1954 cells [1] = experiment: MNED curve-shift assay; type: cell-based; settings: for MNED (maximum non-efficacious dose): HCC-1954
Description: Therefore a curve-shift assay system was established. In a first step, a dose-response curve (DRC) is obtained by treating a certain cell line with an inhibitor. The maximum non-efficacious dose (MNED) can be derived from this DRC. MNED is the highest dose, that can be added to a certain cell line without affecting the viability. The activity of the ADC is confirmed in a separate experiment. Finally, a combination experiment can be conducted. Therefore, the ADC and ADC plus inhibitor at MNED are added to the cells. The inhibitor is tested in parallel at MNED as a control. Due to the application of inhibitor at MNED, no reduction in cell viability caused by the inhibitor is expected. Three outcomes are possible: 1) The combination of ADC plus inhibitor is equipotent as the ADC only. […] Such a result would be interpreted as depotentiation. […] In this case, the potency of the ADC is potentiated.
Potentiation effects are expressed as dose-reduction indices (DRI), which can be calculated by dividing the IC50-value of ADC by the IC50-value of ADC plus inhibitor according to eq. 1
Curve-shift assays were conducted as follows: The cell number and viability was determined using ViCell™-XR (Beckman Coulter) and seeded in opague 96-well plate (10k viable cells/well). After seeding, the plate was incubated (37° C., 5% C02) in a humid chamber overnight. Compounds were diluted in the appropriate medium, added to the cells and the plate was incubated (37° C., 5% CO2, 6 d) in a humid chamber. After 30 min equilibration at room temperature, CellTiter-Glo reagent (Promega) was added. After the plate was shaken (3 min, 550 rpm, rt) it was incubated (10 min, rt) and luminescence was read on a synergy 4 plate reader (BioTek). Evaluation was performed using GraphPad Prism version 6.05. Therefor luminescence values were normalized to luminescence values of non-treated cells and dose-response was fitted with 4-point logistic fit.
The determination of dose-reduction indices (DRI) in a maximum non-efficacious dose (MNED) curve-shift assay is a 3-step process as depicted exemplarily in FIG. 13. The cytotoxicity of the ADC is confirmed in a cell viability assay in an initial step. […] In the second step. the MNED of the ATRi was determined. […] In order to obtain a full […] for the combination, the starting concentration of the ADC was lowered compared to the experiment in step 1.

NCI-N87 cells = experiment: Dose-matrix combination assay (synergy score, Loewe model); type: cell-based
Description: (§1) Dose-matrix combination assays were performed as described above, but performed in opague 384-well plates (2k viable cells/well). Compounds were added using Tecan D300e liquid. Protein solutions were supplemented with 0.3% Tween-20 (final) and diluted to 1 μM. All wells were normalized to the maximum amount of DMSO (maximum 0.4%) or Tween-20 added. Read out of luminescence was performed on Envision 2104 Multilabel Reader (Perkin Elmer) and data were evaluated using Genedata Screener® version 14.0.6-Standard (Genedata AG). Luminescence values were normalized to luminescence of non-treated cells and dose-response was fitted using Smart Fit. Synergy scores were calculated using LOEWE synergy model.
(§2) The screening of synergistic drug combinations can be accomplished by performing a dose-matrix assay. Therefore, two drugs are serial diluted and mixed at every dose level, yielding a dose-matrix. The drug combination can be additive if the effects of the combination are identical to the added effects of the single agents. However, the effects of the combination might also be stronger than the activity of the single agents. This scenario is termed synergy, whereas weaker combination effects compared to the single agents are termed antagonism. A dose-matrix assay is depicted schematically in FIG. 2 which illustrates the outcomes of a dose-matrix assay: additivity, antagonism and synergy.

MDA-MB-453 cells = experiment: as above; type: cell-based
Description: as §1, §2

[2] = Xenograft experiment, tolerability (body weight); parameters: species or system H2d Rag2 mice; settings: mouse, in vivo
Description: The tolerability of the anti-cancer treatment was assessed considering the overall condition of the animal as well as body-weight changes of the mice (FIG. 22).

NCI-N87 xenografts = experiment: Xenograft experiment, therapeutic efficacy; settings: single agent: αHER2-6 1.0 mg/kg i.v. single dose; ATRi 50 mg/kg per oral once daily 14 d
Description: Female H2d Rag2 mice, 6-8 weeks old, were obtained from Taconic Biosciences, LLC. A xenograft was established by harvesting NCI-N87 cells from cell culture, mixing the cells 1:1 with Matrigel and injecting 2.5×10^6 cells subcutaneously into the flank of the mice. The tumor volume was assessed twice weekly by length measurements in two dimensions using calipers. The volume was calculated following eq. 3 where the length L is the longest tumor length and W is the shortest tumor length.
After an initial tumor growth phase, mice were randomized and assigned to treatment groups comprising 10 animals. The initial tumor volume amounted to approximately 100 mm^3 when treatment started. Vehicle treated mice obtained a solution of 0.5% Methocel, 0.25% Tween-20 in water. […] Mice were weighted twice weekly to assess the body-weight during the treatment period. The criteria to terminate the study for single animals were skin ulcerations, tumor length exceeding 15 mm or tumor exceeding 10% of the body weight. In addition, body weight loss was a criterium for termination if body weight loss exceeded 20% accompanied with a haggard appearance, body weight loss exceeded 20% on three successive days or if body weight loss exceeded 25% of the adjusted body weight.

HCC-1954 cells [3] = experiment: Dose-matrix combination assay (synergy score, Loewe model); type: cell-based
Description: as §1, with “Read out of luminescence was performed on Envision 2104 Multilabel Reader (Perkin Elmer) and data were evaluated using Genedata Screener® version 14.0.6-Standard (Genedata AG).” left out
as §2
(§3) The screening was conducted by serial diluting the duocarmycin derivative DUBA (10) and the DDR inhibitors. […] DUBA was combined in a dose-matrix assay with hycanthone. The cell viability was measured after 6 d of treatment using the CellTiter-Glo assay kit. The signals of the cell viability assay were normalized to untreated cells and fitted. […] By subtracting the modeled data from the fitted data, an excess matrix was generated. The excess matrix can be considered as a visualization of the differences between model and actual data which also highlights spots of either high synergy or antagonism. The quantification of the combination effects, however, was performed by calculating synergy scores. […] Besides synergy score, the potency of the drugs in monotherapy was obtained from these experiments. […] The potency was obtained from this dose-response curve.
(§4) The scattering of S was determined in a sham control experiment to define a cutoff for classifying a combination as truly synergistic or antagonistic. Thus seven different compounds were combined with itself on four different cell lines and the three-σ confidence interval was calculated around the mean of the measurement. […] For the sake of convenience, the cutoff was set to a value of ±1.
(§5) Synergy scores (S) were obtained from the combination experiments that indicated additivity […] if model and actual response were equal. […] The magnitude of the score determined the extent of the combination effects.

MDA-MB-468 cells = experiment: as above; type: cell-based; settings: combination with DUBA; MDA-MB-468, 6 d; S ± SD; cutoff ±1
Description: as §1, with “Read out of luminescence was performed on Envision 2104 Multilabel Reader (Perkin Elmer) and data were evaluated using Genedata Screener® version 14.0.6-Standard (Genedata AG).” left out
as §2, §3, §4, §5

HCC-1954 cells [4] = experiment: Cytotoxicity (cell viability, CellTiter-Glo, 6 d); type: cell-based; settings: Homo sapiens, HCC1954, HCC-1954
Description: as §1, with “Read out of luminescence was performed on Envision 2104 Multilabel Reader (Perkin Elmer) and data were evaluated using Genedata Screener® version 14.0.6-Standard (Genedata AG).” left out
After 6 d of treatment, CellTiter-Glo luminescent assay was performed and the luminescence was read on Envision Reader. The results were analyzed using GeneData Screener as described before.

[5] = evaluated in vivo; cited from earlier work
[6] = combination with ADC αHER2-2, HCC-1954
[7] = combination with DUBA, HCC-1954, 6 d, S ± SD, cutoff ±1
[8] = combination with DUBA, cell line not given (screen on HCC-1954 or MDA-MB-468)
[9] = ATRi alone, mean ± SD, read-out: Cytotoxicity IC50
[10] = combination with AZD6738, HCC-1954, 6 d

C[C@@H]1COCCN1c1cc(-c2ccnn2C)c2ccnc(-c3ccn[nH]3)c2n1 [ATRi 1]
MNED (maximum non-efficacious dose) (HCC-1954 cells [1]): 40 nM | effect on cell viability at MNED (HCC-1954 cells [1]; HCC-1954, at 40 nM, inhibitor alone (quality control)): did not reduce cell viability | Synergy score S (NCI-N87 cells): 7.1±0.8 and 6.1±0.4 | Synergy score S (MDA-MB-453 cells): 13.3±0.3 and 11.4 ± 1.4 | tolerability (conclusion) [2]: well tolerated | tumor response (tumor volume) (NCI-N87 xenografts): transient tumor stasis was induced until day 8 | Synergy score S (HCC-1954 cells [3]): 12.5±1.7 and 12.0±0.6

C[C@@H]1COCCN1c1cc(C2(S(C)(=O)=O)CC2)nc(-c2cccc3[nH]ccc23)n1 [AZ20]
Synergy score S (HCC-1954 cells [3]; [6]): 5.8±0.4 | Synergy score S (HCC-1954 cells [3]; [7]): 5.1±0.5

C=CCn1c(=O)c2cnc(Nc3ccc(N4CCN(C)CC4)cc3)nc2n1-c1cccc(C(C)(C)O)n1 [AZD1775]
Synergy score S (HCC-1954 cells [3]; [7]): 0.8±0.1 | Synergy score S (MDA-MB-468 cells): 0.1±0.4

NC(=O)Nc1cc(-c2cccc(F)c2)sc1C(=O)N[C@H]1CCCNC1 [AZD7762]
Synergy score S (HCC-1954 cells [3]; [7]): 3.6±0.4 | Synergy score S (MDA-MB-468 cells): 2.6+0.2

S=C(NCc1ccc2c(c1)OCO2)N1CCN(c2ncnc3c2oc2ccccc23)CC1 [Amuvatinib]
Synergy score S (HCC-1954 cells [3]; [8]): did not yield a synergy score exceeding the cutoff

Cc1nc(S(C)(=O)=O)ccc1-c1cc(N2CCOC[C@H]2C)nc2c(-c3ccn[nH]3)nccc12 [BAY73]
MNED (maximum non-efficacious dose) (HCC-1954 cells [1]): 14 nM | Synergy score S (HCC-1954 cells [3]; [6]): 14.4±1.1 | Synergy score S (HCC-1954 cells [3]; [7]): 12.4±0.8 | IC50 (HCC-1954 cells [4]; [9]): 0.12 ± 0.03 µM

C[C@@H]1COCCN1c1cc(C2(S(C)(=O)=O)CC2)c2ccnc(-c3ccn[nH]3)c2n1 [BAY286]
Synergy score S (HCC-1954 cells [3]; [6]): 10.4±0.2 | Synergy score S (HCC-1954 cells [3]; [7]): 9.5±0.8 | IC50 (HCC-1954 cells [4]; [9]): 0.08 ± 0.02 µM

Cc1c(N)nc([C@H](CC(N)=O)NC[C@H](N)C(N)=O)nc1C(=O)N[C@H](C(=O)N[C@H](C)[C@@H](O)[C@H](C)C(=O)NC(C(=O)NCCc1nc(-c2nc(C(=O)NCCCNCCCCN)cs2)cs1)[C@@H](C)O)[C@@H](O[C@@H]1O[C@@H](CO)[C@@H](O)[C@H](O)[C@@H]1O[C@H]1O[C@H](CO)[C@@H](O)[C@H](OC(N)=O)[C@@H]1O)c1cnc[nH]1 (stereo partly shown) [Bleomycin A5]
Synergy score S (HCC-1954 cells [3]; [7]): 1.6±1.0 | Synergy score S (MDA-MB-468 cells): 0.4+1.0

COc1c(O)c2c(c3cc(C(=O)N4CCc5c4c(O)c(OC)c4[nH]c(C(=O)N6CC7CC78C6=CC(=O)c6[nH]cc(C)c68)cc54)[nH]c13)CCN2C(N)=O (stereo not shown) [CC-1065]
antitumor activity [5]: moderate antitumor activity | toxicity [5]: hepatic toxicity limited its effectiveness

COCC(=O)NC/C=C/c1ccc2ncnc(Nc3ccc(Oc4ccc(C)nc4)c(C)c3)c2c1 [CP724714]
Synergy score S (HCC-1954 cells [3]; [7]): additive effects | Synergy score S (MDA-MB-468 cells): additive effects

N#C/C(C(=O)c1ccc(Cl)cc1Cl)=C1/NC(=O)c2ccc(Cl)cc2N1 [Ciliobrevin D]
Synergy score S (HCC-1954 cells [3]; [7]): 1.2+0.6 | Synergy score S (MDA-MB-468 cells): 0.2±0.5

COc1cc2cc(c1Cl)N(C)C(=O)C[C@H](OC(=O)[C@H](C)N(C)C(=O)CCS)[C@]1(C)O[C@H]1[C@H](C)[C@@H]1C[C@@](O)(NC(=O)O1)[C@H](OC)/C=C/C=C(\C)C2 [DM1]
Synergy score S (HCC-1954 cells [3]): 2.8 ± 0.5

Nc1ccn([C@@H]2O[C@H](CO)[C@@H](O)C2(F)F)c(=O)n1 [Gemcitabine]
Synergy score S (NCI-N87 cells; combination with AZD6738, NCI-N87): 1.1±0.5 | Synergy score S (MDA-MB-453 cells; combination with AZD6738, MDA-MB-453): 1.6±1.2 | Synergy score S (HCC-1954 cells [3]; [10]): 6.9±0.3

CCN(CC)CCNc1ccc(CO)c2sc3ccccc3c(=O)c12 [Hycanthone]
Synergy score S (HCC-1954 cells [3]; [8]): 0.1

O=c1cc(-c2cccc3c2Sc2ccccc2S3)oc(N2CCOCC2)c1 [KU-55933]
Synergy score S (HCC-1954 cells [3]; [7]): 2.1±1.2

Cc1cnc(NC(=O)Nc2cc(Br)c(C)cc2OC[C@@H]2CNCCO2)cn1 [LY2603618]
Synergy score S (HCC-1954 cells [3]; [7]): 4.1+0.3 | Synergy score S (MDA-MB-468 cells): 4.4+1.7

Nc1nc(OCc2cc(Br)cs2)c2[nH]cnc2n1 [Lomeguatrib]
Synergy score S (HCC-1954 cells [3]; [7]): 0.1±0.3 | Synergy score S (MDA-MB-468 cells): 2.8±2.3

CC[C@H](C)[C@@H]([C@@H](CC(=O)N1CCC[C@H]1[C@H](OC)[C@@H](C)C(=O)N[C@H](C)[C@@H](O)c1ccccc1)OC)N(C)C(=O)[C@@H](NC(=O)[C@@H](NC)C(C)C)C(C)C [MMAE] (H-[NMeV]V[Dil][Dolaproine]-X1)
Synergy score S (HCC-1954 cells [3]; [10]): 2.2+0.1

O=c1cc(N2CCOCC2)oc2c(-c3cccc4c3sc3ccccc34)cccc12 [NU7441]
Synergy score S (HCC-1954 cells [3]; [8]): did not yield a synergy score exceeding the cutoff

O=C(c1cc(Cc2n[nH]c(=O)c3ccccc23)ccc1F)N1CCN(C(=O)C2CC2)CC1 [Olaparib]
Synergy score S (HCC-1954 cells [3]; [7]): 0.6+0.4 | Synergy score S (MDA-MB-468 cells): 1.1+0.1

Nc1nc(NC2CC2)cc(-c2cccc(Cl)c2Cl)n1 [TH588]
Synergy score S (HCC-1954 cells [3]; [7]): −0.2±0.3 | Synergy score S (MDA-MB-468 cells): −0.4+0.3

C=CCNC1=C2C[C@@H](C)C[C@H](OC)[C@H](O)[C@@H](C)/C=C(\C)[C@H](OC(N)=O)[C@@H](OC)/C=C\C=C(/C)C(=O)NC(=CC1=O)C2=O [Tanespimycin]
Synergy score S (HCC-1954 cells [3]): 1.4±0.4

COc1cc2cc(C(=O)N3C[C@@H](CCl)c4c3cc(O)c3ccccc43)[nH]c2c(OC)c1OC [compound 24]
Synergy score S (HCC-1954 cells [3]; [10]): 6.1 ± 1.2 | Synergy score S (HCC-1954 cells [3]; combination with AZD6738, HCC-1954, 6 d, listed as CBI-TMI (24)): 6.1±1.2 | IC50 (HCC-1954 cells [4]; duocarmycin variant alone, mean ± SD or mean (individual values), read-out: IC50): 0.024 ± 0.032 µM
